Measured values from the METLIN SMRT retention time set (Domingo-Almenara et al. 2019).

Assay: gradient 5% acetonitrile 3 min, to 50% in 2 min, to 85% in 15 min, held 3 min, 100 µL/min
Details: column: Zorbax Extend-C18 2.1 x 50 mm; eluents: water / acetonitrile, 0.1% formic acid
Procedure, shortened: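 The system's dead and dwell volumes were 40 μL and 900 μL, with a Zorbax Extend-C18 column (2.1 × 50 mm, 1.8 μm) run at 100 μL/min in water and acetonitrile containing 0.1% formic acid each. Pure standards were analyzed in mixtures of ~100 molecules by HPLC–quadrupole time-of-flight mass spectrometry in positive and negative ionization mode. Retention time was assigned from computationally picked, manually inspected adduct peaks.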

Row | Structure (SMILES) | RP-LC retention time [s]
1 | Cc1nc2ccn(Cc3ccco3)c(=O)c2cc1C(=O)NCCc1ccco1 | 720
2 | Cc1sc(NC(=O)c2cccc(Br)c2)nc1-c1ccc2c(c1)NC(=O)C(C)O2 (centres undefined) | 1040
3 | Cc1cccc(-c2nc(Cn3nnc(-c4nc(-c5ccc6c(c5)OCO6)no4)c3C)c(C)o2)c1 | 1240
4 | Cc1ccsc1C(=O)N1C[C@@H]2CCCN3CCC[C@@H]([C@H]23)[C@H]1CCCC(=O)NCC1CC1 | 612
5 | Cc1cnc(-c2ccccc2)n1CCNS(=O)(=O)Cc1ccccc1F | 651
6 | CC1(C(=O)NCc2ccccc2)CN(S(C)(=O)=O)CC(=O)N1Cc1ccccc1Cl (centres undefined) | 778
7 | CCCNC(=O)C1CCCN(c2nc3ncn(CC(=O)Nc4ccc(C)c(C)c4)c(=O)c3s2)C1 (centres undefined) | 715
8 | CCC(CC)N1CCN(C(=O)c2ccc3[nH]c4c(c3c2)CN(C(=O)C2CCC2)CC4)CC1 | 607
9 | CC(C)(C)CN(C(=O)c1ccc(F)cc1)c1ccncc1 | 640
10 | O=C(NCC(=O)N1CCCc2ccccc21)c1cccc2[nH]ccc12 | 773
11 | O=C(NCCCn1cccn1)c1cn2ccccc2n1 | 570
12 | COc1ccc2c(c1)C1(CCN(C(=O)Nc3cccc(F)c3)C1)C(=O)N2 (centres undefined) | 683
13 | CCc1nc2c(NC(=O)NCc3ccccc3)cccn2n1 | 778
14 | CN(CCNC(=O)C1CCCN(c2nn3c(=O)c4c(nc3s2)CCCC4)C1)Cc1ccccc1 (centres undefined) | 624
15 | COCCc1noc([C@@H]2CC(F)(F)CN2C(=O)c2ocnc2C)n1 | 689
16 | O=C(CSc1nc(-c2cccc([N+](=O)[O-])c2)cs1)NCc1ccccc1 | 890
17 | CCn1ncc(C(=O)N2CC[C@@H]3CN(S(C)(=O)=O)[C@@H]3C2)c1C | 594
18 | O=C(Nc1cccn2nc(C3CC3)nc12)c1cccs1 | 788
19 | CCCN(C(=O)CC)c1nc(-c2ccc(Br)cc2)cs1 | 1410
20 | Cc1ccc(CN2CC(n3c(C)cnc3-c3ccccc3)C2)s1 | 555
21 | CCOCC(=O)Nc1ccc(-c2ccc(S(C)(=O)=O)nn2)cc1 | 645
22 | Cc1nn(CC(=O)NC2CCCc3ccccc32)c(=O)c2c(C)n(-c3ccccc3)nc12 (centres undefined) | 937
23 | Cc1noc(C)c1CN1CCC(NC(=O)c2ccc3c(c2)OCO3)CC1 | 590
24 | O=C(NCCn1c(-c2ccc(F)cc2)nc2cccnc21)c1ccc2c(c1)OCO2 | 697
25 | CCOc1cccc(-c2noc(Cn3ccn(-c4c(C)cccc4C)c(=O)c3=O)n2)c1 | 951
26 | COc1ccc(Cn2c(=O)c3sccc3n(Cc3nc(-c4ccccc4)no3)c2=O)cc1 | 1000
27 | Cc1cccc(CNC(=O)C2CCCN(S(=O)(=O)c3cn(C(C)C)cn3)C2)c1 (centres undefined) | 781
28 | Cc1noc(C)c1CCC(=O)N1CCC(c2nnc(-c3ccco3)s2)CC1 | 666

Row | Structure (SMILES) | RP-LC retention time [s]
29 | CN1C(=O)c2cccnc2Sc2cc(NC(=O)c3ccc(Br)o3)ccc21 | 788
30 | O=C(Nc1cc(-c2ccsc2)no1)c1ccc(Br)o1 | 927
31 | COC(=O)Cc1[nH]c(=O)[nH]c1C(=O)OC | 1100
32 | COCCN(Cc1ccc(F)cc1)Cc1cc(=O)c2cc(Cl)ccc2[nH]1 | 880
33 | O=C(CC1CCCC1)NCCC1CCN(C(=O)Nc2ccc(F)cc2F)CC1 | 812
34 | COc1cccc(CNC(=O)C2(c3ccc(NC(=O)C(C)C)cc3)CCCCC2)c1 | 950
35 | CCC(=O)Nc1ccc2c(c1)CN(C(=O)c1ccccc1)C(C(=O)N1CCCC1)C2 (centres undefined) | 667
36 | COC(=O)CNC(=O)c1sc2ncccc2c1-n1cccc1 | 736
37 | Cn1ncc2c3ccccc3n(CC(=O)NC3CCN(Cc4ccccc4)CC3)c2c1=O | 624
38 | COCc1cc(=O)n(CC(=O)Nc2cccc(C)c2)c(N)n1 | 622
39 | CN(C)CCn1c2c(c(SCC(=O)Nc3ccc(Br)cc3)nc1=O)CCC2 | 655
40 | CN1CC[C@@H]2CN3CCc4cccc(c43)[C@@H]2C1 | 644
41 | COc1ccc(-c2nc3ccc(Br)cn3c2Nc2ccccc2C)cc1 | 830
42 | O=C(NCCc1csc(C2CCN(C(=O)C3CCC3)CC2)n1)C1CCC1 | 703
43 | CO[C@H]1C(=O)N(C2CCN(S(=O)(=O)C(C)C)CC2)[C@H]1c1ccncc1 | 569
44 | Cc1ccc(NC(=O)N2[C@H]3CC[C@@H]2c2cncnc2C3)cc1F | 738
45 | Cc1cc(C)c(C)c(S(=O)(=O)Nc2ccc3c(c2)OCO3)c1C | 915
46 | Cc1ccc(S(=O)(=O)Cc2noc(-c3ccc(Br)cc3)n2)cc1 | 1030
47 | O=C(Nc1ccc2c(c1)OCO2)N1CCC(N2CCN(Cc3ccccc3)C2=O)CC1 | 787
48 | COCCNC(=O)c1nc2ccccn2c1-c1ccc(F)cc1 | 699
49 | OCC1CN(c2ncccn2)CC12CCN(Cc1ccc3cc[nH]c3c1)CC2 (centres undefined) | 584
50 | CCOc1ccc2nc(C(=O)NCc3ccc(C(F)(F)F)cc3)cn2n1 | 947
51 | N#Cc1ccc(CN2CCC3(CC2)CN(C2CCC2)CC3CO)cc1 (centres undefined) | 606
52 | CN(Cc1cccnc1)C(=O)c1c(OCC2CC2)cc(=O)n2c1CCCCC2 | 587
53 | O=C(Cn1ccc2ccccc21)N1CCN(S(=O)(=O)C2CC2)CC1 | 563
54 | O=c1cc(CN(Cc2ccccc2)Cc2ccccc2)nc2ccccn12 | 671
55 | CCn1cc(C(=O)NCCC(C)C)c2nn(-c3ccccc3)c(=O)c-2c1 | 878

Other lines, results leading:

Row | RP-LC retention time [s] | Structure (SMILES)
56 | 808 | Cc1ccc(-c2ccc(N3CCCC(C(=O)NCCc4cccs4)C3)nn2)cc1C (centres undefined)
57 | 924 | O=C(Nc1ccc(Cl)cc1)C1CCCN1S(=O)(=O)c1cccc2nsnc12 (centres undefined)
58 | 796 | Cc1noc(-c2ccc(OC3CN(S(=O)(=O)c4cn(C)cn4)C3)cc2)n1
59 | 795 | CCOC(=O)N1CCC(NC(=O)c2cn(-c3cccc(Cl)c3)nn2)CC1
60 | 909 | COc1ccc(Cl)cc1C(=O)N1CCN(c2ccc(-c3nc(C)cs3)cn2)CC1
61 | 667 | COc1ccc(CCC(=O)N2CCC[C@@H]2C(=O)NCCc2csc(C)n2)cc1
62 | 606 | O=C(NCc1ccc(N2CCOCC2)nc1)c1cc(F)cc(F)c1
63 | 787 | COc1ccc(CC(=O)N2CCC3(CC2)NC(=O)c2ccc(Cl)cc2N3)cc1
64 | 964 | CCS(=O)(=O)N1CCc2ccc(NC(=O)COc3ccc(Cl)cc3Cl)cc2C1
65 | 1060 | CCCCCNC(=O)C1CCCN(c2ncc(-c3ccc(F)cc3)cn2)C1 (centres undefined)
66 | 884 | CCn1cc(-c2nc(CC(=O)Nc3ccc(OC)c(F)c3)cs2)c2cccnc21
67 | 1080 | Cc1ccc(-c2nc(C3CC(=O)N(c4ccc(C)cc4)C3)no2)cc1 (centres undefined)
68 | 592 | COc1cc2c(cc1OC)C(C(=O)NCCCN1CCOCC1)C1c3ccccc3CCN1C2=O (centres undefined)
69 | 858 | COc1ccc(NC(=O)CSc2nnc3c4cc(-c5ccccc5)nn4ccn23)c(OC)c1
70 | 787 | Cc1cc(C)cc(C(=O)N2CCC3(CC2)NC(=O)c2ccc(F)cc2N3C)c1
71 | 777 | Cc1ccc(C)c(NC(=O)c2cnn3c2CCCC3)c1
72 | 935 | CCCC(C)C(=O)N1CCCN(C2=NS(=O)(=O)C(c3ccc(CC)cc3)=C2C)CC1 (centres undefined)

Row | RP-LC retention time [s] | Structure (SMILES)
73 | 805 | CCn1cc(S(=O)(=O)N2CCCn3nc(-c4ccc(OC)cc4)cc3C2)cn1
74 | 636 | c1ccc(-c2nc(CSc3ccc(-n4ccnc4)nn3)cs2)cc1
75 | 1040 | Cc1ccc(C2Cn3nnc(-c4nc(-c5cccnc5)no4)c3CO2)c(C)c1 (centres undefined)
76 | 537 | O=C(c1nccc2ccccc12)N1CCC(Nc2ncnc3c2CCC3)C1 (centres undefined)
77 | 984 | CCn1c(=O)c(N2CCC(C(=O)NCCc3c[nH]c4ccc(C)cc34)CC2)nc2cccnc21
78 | 953 | Cc1cc(=O)n(CC(=O)Nc2ccc(Br)cc2F)c(N2CCc3ccccc3C2)n1
79 | 946 | COc1cc2c(cc1OC)C(C(=O)NCc1ccc(C)o1)C1c3ccccc3CCN1C2=O (centres undefined)
80 | 886 | COc1ccc(-c2c(C)noc2NC(C)=O)cc1S(=O)(=O)NCCC1=CCCCC1
81 | 776 | COc1cccc(N2CC(C(=O)N3CC(c4nc(Cc5ccccc5)no4)C3)CC2=O)c1 (centres undefined)
82 | 665 | CCNc1cc(N2CCC(CCC(=O)NCc3cccc(F)c3)CC2)ncn1
83 | 670 | O=C(CN1CCC2(CC1)N=C(c1ccc(Cl)cc1)C(=O)N2)Nc1ccc2c(c1)OCCO2
84 | 1080 | Cc1ccc(Nc2nc(-c3ccc(Br)cc3)cs2)nc1
85 | 832 | COc1ccc(CC2C(=O)Nc3ccccc32)cc1Cl (centres undefined)
86 | 677 | Cc1ccc(-c2ccc(=O)n(Cc3noc(C(=O)NCCN4CCC(C)CC4)n3)n2)cc1
87 | 606 | COc1cc2c(cc1OC)C(C(=O)NCCCN1CCCC1)C(c1cccs1)N(C)C2=O (centres undefined)
88 | 1180 | O=S(=O)(c1cc(Cl)ccc1Cl)N1CCc2nc(-c3ccccc3)ncc2C1
89 | 576 | CCCN1CCN(CCCNc2nc(-c3ccc(OC)cc3)nc3ccccc23)CC1
